{"source": "patent US10533201B2", "about": "“Enzymatic transphosphorylation of sugar substrates” (priority 2014, dated 2020)", "format_in_all_cases": "biochemical", "key": {"glucose-1-phosphatase": {"target": "glucose-1-phosphatase (Escherichia coli, UniProt P19926, D396N/Q163K/Y105D)", "sequence (P19926 other isoform, or with tags, fused parts or gaps Y105D/Q163K/D396N)": "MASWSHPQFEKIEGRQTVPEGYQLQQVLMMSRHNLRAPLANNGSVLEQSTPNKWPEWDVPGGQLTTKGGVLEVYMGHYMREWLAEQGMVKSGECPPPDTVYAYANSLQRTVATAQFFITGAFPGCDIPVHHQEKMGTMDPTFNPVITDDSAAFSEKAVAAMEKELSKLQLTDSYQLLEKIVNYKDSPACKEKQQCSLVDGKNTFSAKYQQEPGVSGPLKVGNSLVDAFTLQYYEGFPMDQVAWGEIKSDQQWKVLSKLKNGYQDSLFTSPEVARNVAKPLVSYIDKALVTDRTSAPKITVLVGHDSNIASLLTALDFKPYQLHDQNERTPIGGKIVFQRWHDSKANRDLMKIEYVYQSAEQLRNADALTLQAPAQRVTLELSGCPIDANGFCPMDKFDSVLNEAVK", "conditions": "20 mM αGlc 1-P and 200 mM acceptor", "description": "FIG. 10: Acceptor substrates phosphorylated by glucose-1-phosphatase. […] Product yields were determined at conversions >90% except for N-acetyl D-glucosamine (GlcNAc) 38%, D-glucosamine (D-GlcN) 81%, D-xylose (D-Xyl) 69%, L-Arabinose (L-Ara) 86%, D-Xylitol (D-Xol) 89% and L-Fucose (L-Fuc) 75%, respectively. All acceptors are phosphorylated at the C1-OH position except for (*) D-glucosamine where the predominant product was phosphorylated at the C6-OH. Light grey bars indicate rS/rP ratio, while the dark grey bars indicate the product yield.\nProduct yields were determined at conversions >90% except for N-acetyl D-glucosamine (GlcNAc) 38%, D-glucosamine (D-GlcN) 81%, D-xylose (D-Xyl) 69%, L-Arabinose (L-Ara) 86%, D-Xylitol (D-Xol) 89% and L-Fucose (L-Fuc) 75%, respectively. All acceptors are phosphorylated at the C1-OH position except for (*) D-glucosamine where the predominant product was phosphorylated at the C6-OH. Light grey bars indicate rS/rP ratio, while the dark grey bars indicate the product yield."}, "αGlc 1-P phosphatase [1]": {"target": "T1, αGlc 1-P phosphatase (Escherichia coli, UniProt P19926, D396N/Q163K/Y105D)", "T1 construct": "Strep-tag (N); made in house; host or cells: E. coli Origami B (DE3), cytoplasmic, pMS470_dsbC vector (DsbC co-expressed)", "T1 sequence (P19926 other isoform, or with tags, fused parts or gaps Y105D/Q163K/D396N)": "as above", "conditions": "20 mM substrate; for hydrolysis by αGlc 1-P phosphatase (in words): pyrophosphate and phytate at pH 7.0 and pH 4.5", "description": "Inorganic phosphate was determined colorimetrically at 850 nm (56).\nHydrolysis reactions were carried out at an initial substrate concentration of 20 mM. […] Samples were taken in 15 min intervals, heat-treated (99° C., 5 min), and centrifuged at 20,000 g for 5 min. The release of phosphate was measured, and the initial rate V (mM min^−1) was determined from the linear relationship between phosphate concentration and time. […] (2)\nA series of phosphorylated sugars were tested as substrates for hydrolysis by phosphatase."}, "αGlc 1-P phosphatase [2]": {"target": "T1, αGlc 1-P phosphatase", "conditions": "for Fru 1-P kcat_app (formation) / Fru 6-P kcat_app (formation) / Glc 6-P kcat_app (formation) / Glc 1-P kcat_app (consumption) / Phosphate kcat_app (release): pH 7.0, 37° C.", "description": "Fru 6-P was measured using an assay with mannitol 1-phosphate dehydrogenase (52). […] (1)\nFru (100, 200, 400 or 600 mM) or Glc (200 mM) was used as the acceptor substrate. […] Sampling was done to allow for determination of initial rates, but the full reaction time course was also recorded. Relevant kcat_app values for substrate consumption, phosphate release, and phosphoryl transfer were obtained from the corresponding V values using equation 2. Internal consistency of the data was always checked by mass balance. pH dependence of phosphoryl transfer. […] A 50 mM Mes buffer was used, except at pH ≤6.0 where 50 mM Mes and 20 mM sodium acetate were used, and at pH 8.0 where 50 mM Mes and 50 mM Tes were used. Buffer pH values were adjusted at 37° C. and controlled before and after recording each enzyme-catalyzed reaction. Sampling and analyses were as described above.\nFor data analysis by non-linear least-squares regression, SigmaPlot 2004 version 9.0 was used. Equation 3 describes a pH dependence where activity (expressed as logarithmic kcat_app) is constant at low pH and decreases above pKB. C is the pH-independent value of kcat_app at the optimum state of protonation, K is the proton dissociation constant and [H^+] is the proton concentration. log(kcat_app)=log(C/(1+K/[H^+])) (3) High Performance Anion Exchange Chromatography with Pulsed Amperometric Detection (HPAEC-PAD).\nSelected samples were analyzed on a Dionex BioLC system (Dionex Corporation, Sunnyvale, USA) equipped with a CarboPac PA10 column (4×250 mm) and an Amino Trap guard column (4×50 mm) thermostated at 30° C. […] Elution was carried out at a flow rate of 0.9 mL/min with the following method: isocratic flow of 52 mM NaOH for 20 min, followed by a linear gradient from 100 mM NaOAc to 400 mM NaOAc, applied within 25 min in an isocratic background of 100 mM NaOH. The column was washed for 5 min with 52 mM NaOH."}, "[3]": {"conditions": "0.1 μM enzyme, 37° C., 50 mM Mes pH 7.0, n.d. = no activity above assay detection limit"}, "[4]": {"conditions": "200 mM Glc acceptor, 20 mM αGlc 1-P"}, "[5]": {"conditions": "200 mM Glc acceptor, 20 mM αGlc 1-P, pH 7.0"}}, "note": "Read-outs that look alike come from different tables or passages of the source."}
{"molecule": "O=C[C@H](O)[C@@H](O)[C@H](O)[C@H](O)C(=O)O", "note": "[D-Glucuronic acid]", "values": [{"measurement": "phosphorylation of acceptor by glucose-1-phosphatase (in words)", "setting": "glucose-1-phosphatase", "value": "not phosphorylated"}]}
{"molecule": "N[C@H]1C(O)O[C@H](CO)[C@H](O)[C@@H]1O", "note": "(stereo partly drawn) [D-galactosamine]", "values": [{"measurement": "phosphorylation of acceptor by glucose-1-phosphatase (in words)", "setting": "glucose-1-phosphatase", "value": "not phosphorylated"}]}
{"molecule": "O=C(COP(=O)(O)O)[C@@H](O)[C@H](O)[C@H](O)CO", "note": "[Fru 1-P, D-fructose 1-phosphate]", "values": [{"measurement": "αGlc 1-P phosphatase kcat_app, hydrolysis", "setting": "αGlc 1-P phosphatase [1]; [3]", "value": 22, "unit": "s⁻¹"}, {"measurement": "Fru 1-P kcat_app (formation)", "setting": "αGlc 1-P phosphatase [2]; Fru 100 mM, 20 mM αGlc 1-P", "value": 39, "unit": "s⁻¹"}, {"measurement": "Fru 1-P kcat_app (formation)", "setting": "αGlc 1-P phosphatase [2]; Fru 200 mM, 20 mM αGlc 1-P", "value": 88, "unit": "s⁻¹"}, {"measurement": "Fru 1-P kcat_app (formation)", "setting": "αGlc 1-P phosphatase [2]; Fru 400 mM, 20 mM αGlc 1-P", "value": "111^a s^−1"}, {"measurement": "Fru 1-P kcat_app (formation)", "setting": "αGlc 1-P phosphatase [2]; Fru 600 mM, 20 mM αGlc 1-P", "value": 135, "unit": "s⁻¹"}]}
{"molecule": "O=C(CO)[C@@H](O)[C@H](O)[C@H](O)COP(=O)(O)O", "note": "[Fru 6-P, D-fructose-6-phosphate]", "values": [{"measurement": "αGlc 1-P phosphatase kcat_app, hydrolysis", "setting": "αGlc 1-P phosphatase [1]; [3]", "value": "22^a s^−1"}, {"measurement": "Fru 6-P kcat_app (formation)", "setting": "αGlc 1-P phosphatase [2]; Fru 100 mM, 20 mM αGlc 1-P", "value": "11^b s^−1"}, {"measurement": "Fru 6-P kcat_app (formation)", "setting": "αGlc 1-P phosphatase [2]; Fru 200 mM, 20 mM αGlc 1-P", "value": "20^ s^−1"}, {"measurement": "Fru 6-P kcat_app (formation)", "setting": "αGlc 1-P phosphatase [2]; Fru 400 mM, 20 mM αGlc 1-P", "value": "28^ s^−1"}, {"measurement": "Fru 6-P kcat_app (formation)", "setting": "αGlc 1-P phosphatase [2]; Fru 600 mM, 20 mM αGlc 1-P", "value": "36^c s^−1"}]}
{"molecule": "O=C[C@H](O)[C@@H](O)[C@H](O)[C@H](O)COP(=O)(O)O", "note": "[Glc 6-P, D-glucose-6-phosphate]", "values": [{"measurement": "αGlc 1-P phosphatase kcat_app, hydrolysis", "setting": "αGlc 1-P phosphatase [1]; [3]", "value": 56, "unit": "s⁻¹"}, {"measurement": "kcat_app ratio for formation of Glc 6-P and phosphate", "setting": "αGlc 1-P phosphatase [2]; [4]", "value": 8.5}, {"measurement": "kcat_app for Glc 6-P synthesis", "setting": "αGlc 1-P phosphatase [2]; [5]", "value": 34, "unit": "s⁻¹"}, {"measurement": "Glc 6-P kcat_app (formation)", "setting": "αGlc 1-P phosphatase [2]; Fru 100 mM, 20 mM αGlc 1-P", "value": 5, "unit": "s⁻¹"}, {"measurement": "Glc 6-P kcat_app (formation)", "setting": "αGlc 1-P phosphatase [2]; Fru 200 mM, 20 mM αGlc 1-P", "value": 6, "unit": "s⁻¹"}, {"measurement": "Glc 6-P kcat_app (formation)", "setting": "αGlc 1-P phosphatase [2]; Fru 400 mM, 20 mM αGlc 1-P", "value": 4, "unit": "s⁻¹"}, {"measurement": "Glc 6-P kcat_app (formation)", "setting": "αGlc 1-P phosphatase [2]; Fru 600 mM, 20 mM αGlc 1-P", "value": 5, "unit": "s⁻¹"}]}
{"molecule": "O=P(O)(O)O[C@H]1[C@H](OP(=O)(O)O)[C@@H](OP(=O)(O)O)[C@H](OP(=O)(O)O)[C@@H](OP(=O)(O)O)[C@H]1OP(=O)(O)O", "note": "[Phytate, myo-inositol hexakisphosphate]", "values": [{"measurement": "hydrolysis by αGlc 1-P phosphatase (in words)", "setting": "αGlc 1-P phosphatase [1]", "value": "weakly active"}, {"measurement": "αGlc 1-P phosphatase kcat_app, hydrolysis", "setting": "αGlc 1-P phosphatase [1]; reactions at pH 7.0 and pH 4.5 (50 mM sodium acetate), phytate active only at pH 4.5, n.d. = no activity above detection limit", "value": 2.1, "unit": "s⁻¹"}]}
{"molecule": "O=P(O)(O)OP(=O)(O)O", "note": "[Pyrophosphate]", "values": [{"measurement": "hydrolysis by αGlc 1-P phosphatase (in words)", "setting": "αGlc 1-P phosphatase [1]", "value": "not hydrolyzed"}]}
{"molecule": "O=P(O)(O)O[C@H]1O[C@H](CO)[C@@H](O)[C@H](O)[C@H]1O", "note": "[αGlc 1-P, alpha-glucose-1-phosphate]", "values": [{"measurement": "αGlc 1-P phosphatase kcat_app, hydrolysis", "setting": "αGlc 1-P phosphatase [1]; [3]", "value": 40, "unit": "s⁻¹"}, {"measurement": "enhancement of α-Glc 1-P consumption rate compared to control without Fru", "setting": "αGlc 1-P phosphatase [2]; 200 mM Fru, 20 mM α-Glc 1-P", "value": "about 3 fold"}, {"measurement": "kcat_app for α-Glc 1-P consumption", "setting": "αGlc 1-P phosphatase [2]; [5]", "value": 40, "unit": "s⁻¹"}, {"measurement": "Glc 1-P kcat_app (consumption)", "setting": "αGlc 1-P phosphatase [2]; Fru 0 mM, 20 mM αGlc 1-P", "value": 40, "unit": "s⁻¹"}, {"measurement": "Glc 1-P kcat_app (consumption)", "setting": "αGlc 1-P phosphatase [2]; Fru 100 mM, 20 mM αGlc 1-P", "value": 73, "unit": "s⁻¹"}, {"measurement": "Glc 1-P kcat_app (consumption)", "setting": "αGlc 1-P phosphatase [2]; Fru 200 mM, 20 mM αGlc 1-P", "value": 137, "unit": "s⁻¹"}, {"measurement": "Glc 1-P kcat_app (consumption)", "setting": "αGlc 1-P phosphatase [2]; Fru 400 mM, 20 mM αGlc 1-P", "value": 162, "unit": "s⁻¹"}, {"measurement": "Glc 1-P kcat_app (consumption)", "setting": "αGlc 1-P phosphatase [2]; Fru 600 mM, 20 mM αGlc 1-P", "value": 189, "unit": "s⁻¹"}, {"measurement": "increase of kcat_app (α-Glc 1-P) in hyperbolic dependence of the Fru concentration", "setting": "αGlc 1-P phosphatase [2]; Fru 100-600 mM", "value": "about 5 fold"}]}
{"molecule": "O=P(O)(O)O[C@@H]1O[C@H](CO)[C@@H](O)[C@H](O)[C@H]1O", "note": "[βGlc 1-P]", "values": [{"measurement": "hydrolysis by αGlc 1-P phosphatase (in words)", "setting": "αGlc 1-P phosphatase [1]", "value": "completely inactive"}]}
{"molecule": "phosphate", "values": [{"measurement": "decrease of phosphate release rate compared to control without Fru", "setting": "αGlc 1-P phosphatase [2]; 200 mM Fru, 20 mM α-Glc 1-P", "value": "about 2 fold"}, {"measurement": "suppression of phosphate release rate compared to control reaction lacking Glc", "setting": "αGlc 1-P phosphatase [2]; [4]", "value": "about 10 fold"}, {"measurement": "kcat_app of phosphate formation", "setting": "αGlc 1-P phosphatase [2]; [5]", "value": 4, "unit": "s⁻¹"}, {"measurement": "Phosphate kcat_app (release)", "setting": "αGlc 1-P phosphatase [2]; Fru 0 mM, 20 mM αGlc 1-P", "value": 40, "unit": "s⁻¹"}, {"measurement": "Phosphate kcat_app (release)", "setting": "αGlc 1-P phosphatase [2]; Fru 100 mM, 20 mM αGlc 1-P", "value": 21, "unit": "s⁻¹"}, {"measurement": "Phosphate kcat_app (release)", "setting": "αGlc 1-P phosphatase [2]; Fru 200 mM, 20 mM αGlc 1-P", "value": 18, "unit": "s⁻¹"}, {"measurement": "Phosphate kcat_app (release)", "setting": "αGlc 1-P phosphatase [2]; Fru 400 mM, 20 mM αGlc 1-P", "value": 14, "unit": "s⁻¹"}, {"measurement": "Phosphate kcat_app (release)", "setting": "αGlc 1-P phosphatase [2]; Fru 600 mM, 20 mM αGlc 1-P", "value": 13, "unit": "s⁻¹"}]}
